Reference: the NIST ThermoML archive (doi:10.1021/je900756g)

Conditions: Liquid; for mass density: Bellows volumetry; for vapor or sublimation pressure: Closed cell (Static) method

F/C=C/C(F)(F)F [trans-1,3,3,3-tetrafluoropropene]
mass density [kg/m3]
Conditions | 310 K | 320 K | 330 K | 340 K | 350 K | 360 K | 370 K
2000 kPa | 1130.2 | 1093.3 | 1054.2 | 1008.1 | 953.6 | – | –
3000 kPa | 1136.3 | 1100.9 | 1063.6 | 1021 | 972.3 | 910.5 | 821.5
4000 kPa | 1142.1 | 1108 | 1072.2 | 1032.2 | 987.6 | 934.2 | 867.6
5000 kPa | 1147.7 | 1114.7 | 1080 | 1042.4 | 1000.5 | 952.9 | 896.7

Conditions | vapor or sublimation pressure [kPa]
310 K | 703
320 K | 920
330 K | 1183
340 K | 1500
350 K | 1876
360 K | 2320
370 K | 2841
380 K | 3458
